From patent publication US4835185A, “Immunomodulator for improving commercial performance of domestic animals” (Iowa State University Research Foundation, Inc., priority 1987, dated 1989) come the findings set out here.

Experiment [1] can be described thus: Lamb trials: growth, feed efficiency, wool and carcass. The experiment is classed as in vivo, lambs (sheep). The source says:
The lambs used in Trial 1 consisted of medium-frame crossbred wethers and ewes weighing 26 to 31 kg. The lambs used in Trial 2 consisted of medium-framced crossbred rams weighing 18 to 25 kg. Each animal was raised as a single. The lambs were housed in a temperature controlled room in individual pens with nipple waterers. When received, the lamps were vaccinated for enterotoxemia. They were allowed to adjust to the pens and the environment for 10 days. One day before the trial began, the lambs were sheared and placed on their respective dietary treatments. The lamps were allotted blocking by weight and sex into two dietary treatment groups. Growth and feed consumption were measured bi-weekly. All lamb weights were taken after a 12 to 16 hour fast. The animals were slaughtered at 50 kg in the Iowa State University Meat laboratory facilities at Ames, Iowa. At slaughter, the lamb's internal organs and wool were weighed and sampled, loin eye area and back fat measured, and carcasses separated into fat, lean, and bone.
The SMB (soybean meal-containing) and the CGM (corn-gluten-containing) diets (compositions given in Table A) were fed twice per day in quantities ensuring that feed was before the lambs at all times. The diets were calculated to be equivalent to each other with respect to metabolizable protein, ether extract, fiber, and minerals with the exception of calcium and phosphorus. […] The CGM diet was calculated to contain slightly more energy (TDN 81.7 vs. 79.0, NEm 1.88 v. 1.86, Neg. 1.23 vs. 1.22). […] The soybean meal ingredient contained about 3.5 wt % leucine, while the corn gluten meal ingredient contained about 15 wt % leucine. The CGM diet was therefore higher in leucine than the SBM diet, containing an estimated 16 wt % leucine as compared with an estimated 8 wt % leucine based on total crude protein in the diet.
^(1) Feed ingredients given on wt % basis.
^(3) Diets containing calcium salt of alphaketoisocaproate (KIC).
^(1) Statistical analysis: *designates p < .05, a significant
^(2) Average daily (24 hrs.) gain (kilograms).
^(3) Kilograms feed per kilogram weight gain.
^(4) Amount of wool in grams.
^(5) Amount of back fat in inches.
^(6) Amount of lean meat in kilograms.
^(1)- (8) See Table B, except cholesterol data is for lean tissue

Experiment [2] has as its system Plasma Cortisol. The experiment is described as follows: Feedlot steers: plasma cortisol. The conditions noted are these: 150 days. The experiment is classed as in vivo, steers (cattle). The source says: Seventy-two medium-frame steers, with an average weight of 578 lbs., were allotted to 12 pens of 6 animals each. A common basal diet was fed ad libitum to all cattle. This consisted of 48.9% cracked corn, 24.4% ground corn cobs, 17.8% expeller Soybean meal, 7.0% molasses (liquid), 1.3% limestone, 0.25% dicalcium phosphate, 2% salt, 0.02% trace mineral premix, and 0.1% vitamin A premix for the first 58 days of the experiment, and was changed to 54.3% cracked corn and 12.8% expeller soybean meal for the remaining 103 days of the experiment. Three pens were assigned to each treatment. The treatments consisted of four levels of Ca-KIC in a pelleted supplement: 0%, 0.02%, 0.07%, and 0.20% of the basal diet (0.05% control pellets, 0.04% KIC pellets, 0.14% KIC pellets, and 0.40% KIC pellets). The pellets were preweighted and top-dressed on the basal diet twice daily. After 58 days, the cattle on the 0.20% KIC were removed from the experiment. The cattle were not implanted with a growth promotant nor were ionophores included in the diet. […] Loin eye area and fat thickness over the loin were measured on each carcass. […]
KIC was obtained from SOBAC, Paris, France. Zein was purchased from Freeman Industries, Tuckahoe, N.Y. Each experiment was statistically analyzed by analysis of variance with three pens per treatment. […]

As for `CC(C)CC(=O)C(=O)O` [KIC, alpha-ketoisocaproate], the “F/G: kilograms feed per kilogram weight gain” value came out at 5.20 in experiment [1] (Trial 1, CGM diet, 1% KIC (0%: 4.53), * p<.05); 4.82 in experiment [1] (Trial 1, SBM diet, 1% KIC (0%: 5.04), * p<.05); 4.35 in experiment [1] (Trial 2, CGM diet, 1% KIC (0%: 4.17)); 4.17 in experiment [1] (Trial 2, SBM diet, 1% KIC (0%: 4.76), * p<.05). Moreover, the “LEAN: amount of lean meat” value in experiment [1] (Trial 1, CGM diet, 1% KIC (0%: 5.9)) is on record as 6.0 kilograms; in experiment [1] (Trial 1, SBM diet, 1% KIC (0%: 6.2)), 6.8 kilograms; in experiment [1] (Trial 2, CGM diet, 1% KIC (0%: 6.1)), 5.8 kilograms; in experiment [1] (Trial 2, SBM diet, 1% KIC (0%: 5.9)) it was 5.4 kilograms. For the same compound, the “WOOL: amount of wool” value is given as “.167 grams” in experiment [1] (Trial 1, CGM diet, 1% KIC (0%: .158), * p<.05); “.216 grams” in experiment [1] (Trial 1, SBM diet, 1% KIC (0%: .176), * p<.05); “.294 grams” in experiment [1] (Trial 2, CGM diet, 1% KIC (0%: .262), * p<.05); “.267 grams” in experiment [1] (Trial 2, SBM diet, 1% KIC (0%: .213), * p<.05). In addition, the “BACK FAT: amount of back fat” value is reported as “.18 inches” in experiment [1] (Trial 1, CGM diet, 1% KIC (0%: .20)); “.22 inches” in experiment [1] (Trial 1, SBM diet, 1% KIC (0%: .26)); “.20 inches” in experiment [1] (Trial 2, CGM diet, 1% KIC (0%: .29)); “.21 inches” in experiment [1] (Trial 2, SBM diet, 1% KIC (0%: .26)). Moreover, the “ADG: average daily (24 hrs.) gain” value in experiment [1] (Trial 1, CGM diet, 1% KIC (0%: .37)) was “.30 kilograms”; in experiment [1] (Trial 1, SBM diet, 1% KIC (0%: .33)), “.36 kilograms”; in experiment [1] (Trial 2, CGM diet, 1% KIC (0%: .333), * p<.05) it was “.308 kilograms”; in experiment [1] (Trial 2, SBM diet, 1% KIC (0%: .304), * p<.05) it was “.339 kilograms”. The Plasma Cortisol was determined as 3.74 µg/dL in experiment [2] (.02% dietary KIC (0%: 4.08)) and 3.2 µg/dL in experiment [2] (.07% dietary KIC (0%: 4.08)).
